Experimental data from patent publication US12065442B2, “Tropomyosin receptor kinase (TRK) degradation compounds and methods of use” (Cullgen (Shanghai), Inc., priority 2018, dated 2024).

Test system: KM12 cells
Assay: Cell viability assay (CellTiter-Glo) in KM12 cells
Assay type: cell-based
Conditions: Homo sapiens, 72 h; Table 2; KM12 cell viability, CellTiter-Glo, 3 days; read-out: IC50

Compound	IC50 [nM]
Cc1ncsc1-c1ccc(CNC(=O)[C@@H]2C[C@@H](O)CN2C(=O)[C@@H](NC(=O)CCOCCOCCOCCOCCC(=O)N2CCN(c3ccc(C(=O)Nc4n[nH]c5ccc(Cc6cc(F)cc(F)c6)cc45)c(NC4CCOCC4)c3)CC2)C(C)(C)C)cc1 [CPD-041, (2S,4R)-1-((S)-2-(tert-butyl)-19-(4-(4-((5-(3,5-Difluorobenzyl)-1H-indazol-3-yl)carbamoyl)-3-((tetrahydro-2H-pyran-4-yl)amino)phenyl)piperazin-1-yl)-4,19-dioxo-7,10,13,16-tetraoxa-3-azanonadecanoyl)-4-hydroxy-N-(4-(4-methylthiazol-5-yl)benzyl)pyrrolidine-2-carboxamide]	400
Cc1ncsc1-c1ccc(CNC(=O)[C@@H]2C[C@@H](O)CN2C(=O)[C@@H](NC(=O)CCCCCCC(=O)N2CCN(c3cccc(-c4cnc5ccc(N6CCC[C@@H]6c6cccc(F)c6)nn45)n3)CC2)C(C)(C)C)cc1 [CPD-029, (2S,4R)-1-((S)-2-(8-(4-(6-(6-((R)-2-(3-Fluorophenyl)pyrrolidin-1-yl)imidazo[1,2-b]pyridazin-3-yl)pyridin-2-yl)piperazin-1-yl)-8-oxooctanamido)-3,3-dimethylbutanoyl)-4-hydroxy-N-(4-(4-methylthiazol-5-yl)benzyl)pyrrolidine-2-carboxamide]	74
Cc1ncsc1-c1ccc(CNC(=O)[C@@H]2C[C@@H](O)CN2C(=O)[C@@H](NC(=O)CCCCCCC(=O)N2CCN(c3ccc(C(=O)Nc4n[nH]c5ccc(Cc6cc(F)cc(F)c6)cc45)c(NC4CCOCC4)c3)CC2)C(C)(C)C)cc1 [CPD-033, (2S,4R)-1-((S)-2-(8-(4-(4-((5-(3,5-difluorobenzyl)-1H-indazol-3-yl)carbamoyl)-3-((tetrahydro-2H-pyran-4-yl)amino)phenyl)piperazin-1-yl)-8-oxooctanamido)-3,3-dimethylbutanoyl)-4-hydroxy-N-(4-(4-methylthiazol-5-yl)benzyl)pyrrolidine-2-carboxamide]	100
Cc1ncsc1-c1ccc(CNC(=O)[C@@H]2C[C@@H](O)CN2C(=O)[C@@H](NC(=O)CCCCCCCC(=O)N2CCN(c3cccc(-c4cnc5ccc(N6CCC[C@@H]6c6cccc(F)c6)nn45)n3)CC2)C(C)(C)C)cc1 [CPD-018, (2S,4R)-1-((S)-2-(9-(4-(6-(6-((R)-2-(3-Fluorophenyl)pyrrolidin-1-yl)imidazo[1,2-b]pyridazin-3-yl)pyridin-2-yl)piperazin-1-yl)-9-oxononanamido)-3,3-dimethylbutanoyl)-4-hydroxy-N-(4-(4-methylthiazol-5-yl)benzyl)pyrrolidine-2-carboxamide]	258

Same assay, conditions: Homo sapiens, 72 h; Table 3; KM12 cell viability, CellTiter-Glo, 3 days; read-out: IC50

Compound	IC50 [nM]
O=C1CCC(N2C(=O)c3ccc(NCCC4CN(c5cccc(-c6cnc7ccc(N8CCC[C@@H]8c8cccc(F)c8)nn67)n5)C4)cc3C2=O)C(=O)N1 (stereo partly drawn) [TR-193, 2-(2,6-Dioxopiperidin-3-yl)-5-((2-(1-(6-(6-((R)-2-(3-fluorophenyl)pyrrolidin-1-yl)imidazo[1,2-b]pyridazin-3-yl)pyridin-2-yl)azetidin-3-yl)ethyl)amino)isoindoline-1,3-dione]	1100
O=C1CCC(N2C(=O)c3ccc(NCCNC4CN(c5cccc(-c6cnc7ccc(N8CCC[C@@H]8c8cccc(F)c8)nn67)n5)C4)cc3C2=O)C(=O)N1 (stereo partly drawn) [TR-192, 2-(2,6-Dioxopiperidin-3-yl)-5-((2-((1-(6-(6-((R)-2-(3-fluorophenyl)pyrrolidin-1-yl)imidazo[1,2-b]pyridazin-3-yl)pyridin-2-yl)azetidin-3-yl)amino)ethyl)amino)isoindoline-1,3-dione]	103
O=C(CN1CCN(c2cccc(-c3cnc4ccc(N5CCC[C@@H]5c5cccc(F)c5)nn34)n2)CC1)NCCCCCCCCNc1cccc2c1C(=O)N(C1CCC(=O)NC1=O)C2=O (stereo partly drawn) [TR-102, N-(8-((2-(2,6-dioxopiperidin-3-yl)-1,3-dioxoisoindolin-4-yl)amino)octyl)-2-(4-(6-(6-((R)-2-(3-fluorophenyl)pyrrolidin-1-yl)imidazo[1,2-b]pyridazin-3-yl)pyridin-2-yl)piperazin-1-yl)acetamide]	44.4
O=C1CCC(N2C(=O)c3ccc(NCCCCCCC(=O)N4CCN(c5cccc(-c6cnc7ccc(N8CCC[C@@H]8c8cccc(F)c8)nn67)n5)CC4)cc3C2=O)C(=O)N1 (stereo partly drawn) [TR-117, 2-(2,6-Dioxopiperidin-3-yl)-5-((7-(4-(6-(6-((R)-2-(3-fluorophenyl)pyrrolidin-1-yl)imidazo[1,2-b]pyridazin-3-yl)pyridin-2-yl)piperazin-1-yl)-7-oxoheptyl)amino)isoindoline-1,3-dione]	4.3
O=C(CN1CCN(c2ccc(C(=O)Nc3n[nH]c4ccc(Cc5cc(F)cc(F)c5)cc34)c(NC3CCOCC3)c2)CC1)NCCCCCCCCNc1cccc2c1C(=O)N(C1CCC(=O)NC1=O)C2=O (stereo not shown) [TR-148, N-(5-(3,5-Difluorobenzyl)-1H-indazol-3-yl)-4-(4-(2-((8-((2-(2,6-dioxopiperidin-3-yl)-1,3-dioxoisoindolin-4-yl)amino)octyl)amino)-2-oxoethyl)piperazin-1-yl)-2-((tetrahydro-2H-pyran-4-yl)amino)benzamide]	23.2
O=C(CN1CCN(c2ccc(C(=O)Nc3n[nH]c4ccc(Cc5cc(F)cc(F)c5)cc34)c(NC3CCOCC3)c2)CC1)NCCOCCNc1cccc2c1C(=O)N(C1CCC(=O)NC1=O)C2=O (stereo not shown) [TR-151, N-(5-(3,5-Difluorobenzyl)-1H-indazol-3-yl)-4-(4-(2-((2-(2-((2-(2,6-dioxopiperidin-3-yl)-1,3-dioxoisoindolin-4-yl)amino)ethoxy)ethyl)amino)-2-oxoethyl)piperazin-1-yl)-2-((tetrahydro-2H-pyran-4-yl)amino)benzamide]	3.1
O=C(CN1CCN(c2cccc(-c3cnc4ccc(N5CCC[C@@H]5c5cccc(F)c5)nn34)n2)CC1)NCCCCCCCNc1cccc2c1C(=O)N(C1CCC(=O)NC1=O)C2=O (stereo partly drawn) [TR-110, N-(7-((2-(2,6-dioxopiperidin-3-yl)-1,3-dioxoisoindolin-4-yl)amino)heptyl)-2-(4-(6-(6-((R)-2-(3-fluorophenyl)pyrrolidin-1-yl)imidazo[1,2-b]pyridazin-3-yl)pyridin-2-yl)piperazin-1-yl)acetamide]	35.9

Same assay, conditions: Homo sapiens, 72 h; Table 4; KM12 cell viability, CellTiter-Glo, 3 days; read-out: IC50

Compound	IC50 [nM]
O=C1CCC(N2Cc3cc(N4CC(CN5CCN(c6cccc(-c7cnc8ccc(N9CCC[C@@H]9c9cccc(F)c9)nn78)n6)CC5)C4)ccc3C2=O)C(=O)N1 (stereo partly drawn) [TR-205, 3-(5-(3-((4-(6-(6-((R)-2-(3-Fluorophenyl)pyrrolidin-1-yl)imidazo[1,2-b]pyridazin-3-yl)pyridin-2-yl)piperazin-1-yl)methyl)azetidin-1-yl)-1-oxoisoindolin-2-yl)piperidine-2,6-dione]	122
O=C1CCC(N2C(=O)c3ccc(N4CC(C(=O)N5CCN(c6cccc(-c7cnc8ccc(N9CCC[C@@H]9c9cccc(F)c9)nn78)n6)CC5)C4)cc3C2=O)C(=O)N1 (stereo partly drawn) [TR-211, 2-(2,6-Dioxopiperidin-3-yl)-5-(3-(4-(6-(6-((R)-2-(3-fluorophenyl)pyrrolidin-1-yl)imidazo[1,2-b]pyridazin-3-yl)pyridin-2-yl)piperazine-1-carbonyl)azetidin-1-yl)isoindoline-1,3-dione]	2
